Experiments:
KMH2 cell line = test: Clonogenic survival in methylcellulose; format: cell-based, human; details: lowest doses 0.1 and 0.5 μmol
Procedure: (§1) In all examples, the human Hodgkin lymphoma-derived cell lines L428, L428-c, KMH2, L591, L540, L1236, HDLM2 and SUP-HD were obtained from Dr Steffen Junker (Aarhus University Denmark). All cell lines were cultured in Gibco RPMI 1640 medium supplemented with Glutamax, 10% FBS and antibiotics at 37° C. […] The immunophenotype, P53 status and MSI characterization of the Hodgkin lymphoma cell lines was determined using anti-CD30, CD15, CD20 and CD14 antibodies.
(§2) This test was performed on four Hodgkin lymphoma cell lines (L428, L428s, KMH2 and L540). Each was cultured with EDO-S101 at doses of 0, 0.1, 0.5, 1, 10 and 20 μmol in DMSO. The cell lines were cultured in methylcellulose (Stem cell Technologies) at a concentration of 10^5/ml at 37° C. and 5% CO2. The surviving fraction was determined by measuring the viability of colonies generated before and after exposure. Only colonies with more than 50 cells were counted. Each data point represents the average and SD from three independent experiments performed in triplicate.

L428s = test: Clonogenic survival in methylcellulose; format: cell-based, human; details: very low doses 0.1 and 0.5 μmol
Procedure: as §1, §2

L428 = test: Clonogenic survival in methylcellulose; format: cell-based, human; details: very low doses 0.1 and 0.5 μmol
Procedure: as §1, §2

L540 cell line = test: Clonogenic survival in methylcellulose; format: cell-based, human; details: any dose (0.1 to 20 μmol)
Procedure: as §1, §2

[1] = Weight of xenografted mice; format: in vivo, NSG mice
Procedure: Two independent experiments were performed to investigate the dose-effect of EDO-S101 in NSG mice eight weeks after xenografting with L428 cells as in Example 8. The aim of the protocol shown in FIG. 8B was to evaluate the effect of sequential treatment with a moderate dose of 60 mg/kg given at an interval of three weeks.
This weight loss was also observed in mice treated with the vehicle. In contrast, the weight of the control mice receiving only freshly prepared phosphate buffered saline (PBS) buffered to 7.3-7.4 increased up to 11 weeks and then started to decrease.
The toxicity of the dose of 80 mg/kg compared to 60 mg/kg was investigated, as compared to the control groups vehicle and PBS.

With `Cn1c(CCCCCCC(=O)NO)nc2cc(N(CCCl)CCCl)ccc21` [EDO-S101] the clones observed (KMH2 cell line) was “only a few clones”, the clones observed (L428s) was “only macrophagic clones being observed” and the clones observed (L428) was “only macrophagic clones being observed”. For the same compound, the clones observed (L540 cell line) was “No clone was observed”, the “difference between weight losses” value ([1]; 60 mg/kg versus 80 mg/kg) was “no significant difference” and the “weight of the mice or the different organs” value ([1]; mouse, in vivo) was “No significant difference”. The “weight of the mice” value ([1]; two doses of 60 mg/kg three weeks apart) was “weight loss following each administration which was regained after several weeks”.

From patent publication US20180098969A1, “HODGKIN LYMPHOMA THERAPY” (Purdue Pharmaceutical Products L.P., priority 2016, published 2018)
